The values that follow come from US20240254129A1, “HETEROCYCLIC COMPOUNDS AND USES THEREOF” (Kumquat Biosciences Inc., priority 2021, published 2024).

The structures appear in SMILES notation.

Assay [1] concerns the target GST-tagged K-Ras mutant / His-tagged hSOS1 (Homo sapiens, UniProt P01116). Kind of assay: HTRF assay, K-Ras mutant / SOS1 interaction. It counts as binding. As to conditions: compound nos. 401-703; read-out: IC50 against mutant Kras. The method, boiled down: (§1)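 Buffer ~5 mM HEPES pH 7.4, ~150 mM NaCl, ~1 mM DTT, 0.05% BSA, 0.0025% Igepal. Cpd in DMSO + Ras/donor mix + SOS1/acceptor mix; ≥10 min; HTRF 665/620 ratio → IC50.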
In general terms: TR-FRET usually uses a lanthanide donor and a delayed reading to cut background.

The target of assay [2] is T1, wildtype Kras / hSOS1 (Homo sapiens, UniProt P01116).
T1 construct: made in house; host or cells: E. coli BL21 (DE3)
The assay is described as follows: HTRF assay, wildtype Kras / SOS1 interaction. Format: binding. As to conditions: compound nos. 401-703; read-out: IC50 against wildtype Kras. The method, boiled down:
as §1

T1 sequence (P01116 1-188 isoform P01116-2): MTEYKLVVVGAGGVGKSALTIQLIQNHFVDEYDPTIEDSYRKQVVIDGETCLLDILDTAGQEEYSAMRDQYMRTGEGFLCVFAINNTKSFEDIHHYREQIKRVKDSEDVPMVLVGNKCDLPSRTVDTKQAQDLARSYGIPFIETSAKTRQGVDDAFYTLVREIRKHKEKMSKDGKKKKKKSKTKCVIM
Sequence of GST-tagged K-Ras mutant / His-tagged hSOS1 (P01116 whole entry G12D, form open): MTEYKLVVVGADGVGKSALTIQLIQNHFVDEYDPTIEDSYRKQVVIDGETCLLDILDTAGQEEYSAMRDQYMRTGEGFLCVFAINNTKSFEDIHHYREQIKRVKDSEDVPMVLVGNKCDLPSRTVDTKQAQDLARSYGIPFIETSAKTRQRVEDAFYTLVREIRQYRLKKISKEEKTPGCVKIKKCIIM

For the molecule `Nc1nc2c(-c3c(Cl)cc4c(N5CC6CCC(C5)N6)nc(OCC5(CN6CC[C@@H](F)C6)CC5)nc4c3F)ccc(F)c2s1` [Compound 586, 4-(4-(3,8-diazabicyclo-[3.2.1]octan-3-yl)-6-chloro-8-fluoro-2-((1-(((R)-3-fluoropyrrolidin-1-yl)meth-yl)cyclopropyl)methoxy)-quinazolin-7-yl)-7-fluoro-benzo[d]thiazol-2-amine], the figures for the IC50 in assay [1] and in assay [2] were less than 500 nM and more than 500 nM, respectively.

With `Nc1nc2c(-c3c(Cl)cc4c(N5CC6CCC(C5)N6)nc(OC[C@@]56CCCN5C[C@H](F)C6)nc4c3F)cccc2o1` [Compound 588, 4-(4-(3,8-diazabicyclo-[3.2.1]-octan-3-yl)-6-chloro-8-fluoro-2-(((2R,7aS)-2-fluorotetrahydro-1H-pyrrol-izin-7a(5H)-yl)methoxy)-quinazolin-7-yl)benzo[d]-oxazol-2-amine], the half-inhibitory concentration (IC50) – broadly, the concentration that gives 50% inhibition – is less than 500 nM in assay [1] and more than 500 nM in assay [2].

Take `Nc1c(Cl)cccc1-c1c(Cl)cc2c(N3CC4CCC(C3)N4)nc(OCC34CCCN3CCC4)nc2c1F` [Compound 589, 2-(4-(3,8-diazabicyclo-[3.2.1]octan-3-yl)-6-chloro-8-fluoro-2-((tetrahydro-1H-pyrrolizin-7a(5H)-yl)meth-oxy)quinazolin-7-yl)-6-chloroaniline]: the IC50 in assay [1] and in assay [2] was more than 500 nM each time.

On to `Nc1nc2c(-c3cc4nc(OCC56CCCN5CCC6)nc(N5CC6CCC(C5)N6)c4cc3Cl)ccc(F)c2s1` [Compound 591, 4-(4-(3,8-diazabicyclo-[3.2.1]octan-3-yl)-6-chloro-2-((tetrahydro-1H-pyrrol-izin-7a(5H)-yl)methoxy)-quinazolin-7-yl)-7-fluoro-benzo[d]thiazol-2-amine], for which the IC50 in assay [1] was less than 500 nM; in assay [2] it was more than 500 nM.

On to `N#Cc1c(N)sc2c(F)ccc(-c3c(Cl)cc4c(N5CCCC6(CCNC6)C5)nc(OC[C@@]56CCCN5C[C@H](F)C6)nc4c3F)c12` (stereo partly drawn) [Compound 592, 2-amino-4-(6-chloro-8-fluoro-2-(((2R,7aS)-2-fluorotetrahydro-1H-pyrrol-izin-7a(5H)-yl)methoxy)-4-(2,7-diazaspiro[4.5]decan-7-yl)quinazolin-7-yl)-7-fluorobenzo[b]thiophene-3-carbonitrile], for which the IC50 in assay [1] was less than 500 nM; in assay [2], more than 500 nM.

Consider `CN1CCC[C@H]1COc1nc(N2CCCC(Cl)CC2)c2cc(Cl)c(-c3cccc4sc(N)nc34)c(F)c2n1` (stereo partly drawn) [Compound 593, 4-(6-chloro-4-(4-chloro-azepan-1-yl)-8-fluoro-2-(((S)-1-methylpyrrolidin-2-yl)methoxy)quinazolin-7-yl)benzo[d]thiazol-2-amine], for which the concentration for half-maximal inhibition (IC50) is less than 500 nM in assay [1] and more than 500 nM in assay [2].

For the molecule `CNCCCN1[C@@H]2CC[C@H]1CN(c1nc(OCC34CCCN3CCC4)nc3c(F)c(-c4ccc(F)c5sc(N)nc45)c(Cl)cc13)C2` [Compound 594, 4-(6-chloro-8-fluoro-4-((1R,5S)-8-(3-(methyl-amino)propyl)-3,8-diaza-bicyclo[3.2.1]octan-3-yl)-2-((tetrahydro-1H-pyrrol-izin-7a(5H)-yl)methoxy)-quinazolin-7-yl)-7-fluoro-benzo[d]thiazol-2-amine], the half-maximal inhibitory concentration (IC50) in assay [1] was less than 500 nM; in assay [2], more than 500 nM.

In the case of `N#CCCc1cc2c(N3CC4CCC(C3)N4)nc(OC[C@@]34CCCN3C[C@H](F)C4)nc2c(F)c1-c1cc(O)cc2ccccc12` [Compound 595, 3-(4-(3,8-diazabicyclo-[3.2.1]octan-3-yl)-8-fluoro-2-(((2R,7aS)-2-fluorotetra-hydro-1H-pyrrolizin-7a(5H)-yl)methoxy)-7-(3-hydroxynaphthalen-1-yl)-quinazolin-6-yl)propane-nitrile], the half-inhibitory concentration (IC50) in assay [1] was less than 500 nM; in assay [2], more than 500 nM.

As for `Nc1ccc2cccc(-c3ccc4c(N5CC6CCC(C5)N6)nc(OCC56CCCN5CCC6)nc4c3F)c2n1` [Compound 596, 8-(4-(3,8-diazabicyclo-[3.2.1]octan-3-yl)-8-fluoro-2-((tetrahydro-1H-pyrrol-izin-7a(5H)-yl)methoxy)-quinazolin-7-yl)quinolin-2-amine], the IC50 in assay [1] and in assay [2] was more than 500 nM in each case.

Take `Nc1ccc2cccc(-c3c(Cl)cc4c(N5CC6CCC(C5)N6)nc(OCC56CCCN5CCC6)nc4c3F)c2n1` [Compound 597, 8-(4-(3,8-diazabicyclo-[3.2.1]octan-3-yl)-6-chloro-8-fluoro-2-((tetrahydro-1H-pyrrolizin-7a(5H)-yl)meth-oxy)quinazolin-7-yl)quin-olin-2-amine]: the 50% inhibitory concentration (IC50) in assay [1] and in assay [2] was more than 500 nM each time.

With `N#Cc1c(N)sc2c(F)ccc(-c3c(Cl)cc4c(N5CCCOCC5)nc(OC[C@@]56CCCN5C[C@H](F)C6)nc4c3F)c12` [Compound 598, 2-amino-4-(6-chloro-8-fluoro-2-(((2R,7aS)-2-fluorotetrahydro-1H-pyrrol-izin-7a(5H)-yl)methoxy)-4-(1,4-oxazepan-4-yl)quin-azolin-7-yl)-7-fluorobenzo-[b]thiophene-3-carbonitrile], the IC50 in assay [1] was less than 500 nM; in assay [2], more than 500 nM.

As for `Fc1c(Br)c(Cl)cc2c(N3CCNCC(F)(F)C3)nc(OCC34CCCN3CCC4)nc12` [Compound 599, 7-bromo-6-chloro-4-(6,6-difluoro-1,4-diazepan-1-yl)-8-fluoro-2-((tetrahydro-1H-pyrrolizin-7a(5H)-yl)meth-oxy)quinazoline], the concentration for half-maximal inhibition (IC50) in assay [1] and in assay [2] was more than 500 nM throughout.

On to `Nc1nc2c(-c3c(Cl)cc4c(N5CCC[C@H](N)CC5)nc(OC[C@@]56CCCN5C[C@H](F)C6)nc4c3F)ccc(F)c2s1` [Compound 600, 4-(4-((S)-4-aminoazepan-1-yl)-6-chloro-8-fluoro-2-(((2R,7aS)-2-fluorotetra-hydro-1H-pyrrolizin-7a(5H)-yl)methoxy)quinazolin-7-yl)-7-fluorobenzo[d]thiazol-2-amine], for which the IC50 is less than 500 nM in assay [1] and more than 500 nM in assay [2].

Take `Nc1nc2c(-c3c(Cl)cc4c(N5CC6CCC(C5)N6)nc(OC[C@@]56CCCN5C[C@H](F)C6)nc4c3F)cc(Cl)cc2s1` [Compound 601, 4-(4-(3,8-diazabicyclo-[3.2.1]octan-3-yl)-6-chloro-8-fluoro-2-(((2R,7aS)-2-fluorotetrahydro-1H-pyrrol-izin-7a(5H)-yl)methoxy)-quinazolin-7-yl)-6-chloro-benzo[d]thiazol-2-amine]: the half-inhibitory concentration (IC50) in assay [1] is less than 500 nM; in assay [2] it was more than 500 nM.

In the case of `CN1CCC[C@H]1COc1nc(N2CCNCC(F)(F)C2)c2cc(Cl)c(-c3cccc4cnc(N)nc34)c(F)c2n1` [Compound 602, 6-chloro-4-(6,6-difluoro-1,4-diazepan-1-yl)-8-fluoro-2-(((S)-1-methylpyrrolidin-2-yl)methoxy)-[7,8′-biquin-azolin]-2′-amine], the IC50 in assay [1] and in assay [2] was more than 500 nM in each case.

With `Fc1c(-c2ccccc2-c2ccccc2)c(Cl)cc2c(N3CCCCCC3)nc(OCC34CCCN3CCC4)nc12` [Compound 603, 7-([1,1′-biphenyl]-2-yl)-4-(azepan-1-yl)-6-chloro-8-fluoro-2-((tetrahydro-1H-pyrrolizin-7a(5H)-yl)meth-oxy)quinazoline], the IC50 in assay [1] and in assay [2] was more than 500 nM in each case.

Regarding `Nc1nc2c(-c3c(Cl)cc4c(N5CCNC(=O)CC5)nc(OC[C@@]56CCCN5C[C@H](F)C6)nc4c3F)ccc(F)c2s1` [Compound 604, 1-(7-(2-amino-7-fluoroben-zo[d]thiazol-4-yl)-6-chloro-8-fluoro-2-(((2R,7aS)-2-fluorotetrahydro-1H-pyrrol-izin-7a(5H)-yl)methoxy)-quinazolin-4-yl)-1,4-diazepan-5-one], the half-inhibitory concentration (IC50) in assay [1] was less than 500 nM; in assay [2], more than 500 nM.

As for `N#Cc1c(N)sc2c(F)ccc(-c3c(Cl)cc4c(N5CC6CCC(C5)N6C5CCOC5)nc(OC[C@@]56CCCN5C[C@H](F)C6)nc4c3F)c12` (stereo partly drawn) [Compound 605, 2-amino-4-(6-chloro-8-fluoro-2-(((2R,7aS)-2-fluoro-tetrahydro-1H-pyrrolizin-7a(5H)-yl)methoxy)-4-((1R,5S)-8-(tetrahydro-furan-3-yl)-3,8-diazabicyclo-[3.2.1]octan-3-yl)quinazolin-7-yl)-7-fluorobenzo[b]thio-phene-3-carbonitrile], the half-inhibitory concentration (IC50) is less than 500 nM in assay [1] and more than 500 nM in assay [2].

`Nc1ccc2cccc(-c3c(Cl)cc4c(N5CC6CCC(C5)N6)nc(OC[C@@]56CCCN5C[C@H](F)C6)nc4c3F)c2n1` [Compound 606, 8-(4-(3,8-diazabicyclo-[3.2.1]octan-3-yl)-6-chloro-8-fluoro-2-(((2R,7aS)-2-fluorotetrahydro-1H-pyrrol-izin-7a(5H)-yl)methoxy)-quinazolin-7-yl)quinolin-2-amine]: the 50% inhibitory concentration (IC50) in assay [1] and in assay [2] was more than 500 nM each time.

For the molecule `Nc1nc2c(-c3c(Cl)cc4c(N5CC6CCCC(C5)N6)nc(OC[C@@]56CCCN5C[C@H](F)C6)nc4c3F)ccc(F)c2s1` [Compound 607, 4-(4-(3,9-diazabicyclo-[3.3.1]nonan-3-yl)-6-chloro-8-fluoro-2-(((2R,7aS)-2-fluorotetrahydro-1H-pyrrol-izin-7a(5H)-yl)methoxy)-quinazolin-7-yl)-7-fluoro-benzo[d]thiazol-2-amine], the IC50 in assay [1] was less than 500 nM; in assay [2], more than 500 nM.

In the case of `Oc1cc(-c2ccc3c(N4CC5CCC(C4)N5)nc(OC[C@]45CCCN4C[C@@H](F)C5)nc3c2OCC(F)(F)F)c2ccccc2c1` [Compound 608, 4-(4-(3,8-diazabicyclo-[3.2.1]octan-3-yl)-2-(((2S,7aR)-2-fluorotetra-hydro-1H-pyrrolizin-7a(5H)-yl)methoxy)-8-(2,2,2-trifluoroethoxy)-quinazolin-7-yl)naph-thalen-2-ol], the 50% inhibitory concentration (IC50) in assay [1] and in assay [2] was more than 500 nM in each case.
